Converted amounts (≈) assume the structure as drawn.
Experiments:
Assay in all cases: in vitro antibacterial activity, standard agar dilution method
Format in all cases: cell-based
[1] = test system: Staphylococcus epidermidis IFO 12993; conditions: IFO12993, aerobic, read-out: minimum inhibitory concentration (MIC)
[2] = test system: Proteus vulgaris OX19 ATCC 6898; conditions: ATCC6898, aerobic, read-out: minimum inhibitory concentration (MIC)
[3] = test system: Alcaligenes faecalis IFO 13111; conditions: IFO13111, aerobic, read-out: minimum inhibitory concentration (MIC)
[4] = test system: Pseudomonas aeruginosa NR 2950; conditions: NR2950, aerobic, read-out: minimum inhibitory concentration (MIC)
[5] = test system: Bordetella bronchiseptica ATCC 4617; conditions: ATCC4617, aerobic, read-out: minimum inhibitory concentration (MIC)
[6] = test system: Enterococcus faecalis NR 2943; conditions: NR2943, aerobic, read-out: minimum inhibitory concentration (MIC)
[7] = test system: Staphylococcus epidermidis NR 2942; conditions: NR2942, aerobic, read-out: minimum inhibitory concentration (MIC)
[8] = test system: Escherichia coli NR 2630; conditions: NR2630; Escherichia coli NR 2630; aerobic; agar dilution; read-out: minimum inhibitory concentration (MIC)
[9] = test system: Bacillus subtilis PCI 219; conditions: PCI219, aerobic, read-out: minimum inhibitory concentration (MIC)
[10] = test system: Pseudomonas aeruginosa A3; conditions: aerobic, read-out: minimum inhibitory concentration (MIC)
[11] = test system: Proteus rettgeri ATCC 14505; conditions: Providencia rettgeri, ATCC14505, aerobic, read-out: minimum inhibitory concentration (MIC)
[12] = test system: Enterobacter cloacae NR 2946; conditions: NR2946, aerobic, read-out: minimum inhibitory concentration (MIC)
[13] = test system: Escherichia coli NIHJ JC-2; conditions: NIHJJC2, aerobic, read-out: minimum inhibitory concentration (MIC)
[14] = test system: Staphylococcus aureus Smith; conditions: Staphylococcus aureus Smith; aerobic; agar dilution; read-out: minimum inhibitory concentration (MIC)
[15] = test system: Citrobacter freundii IFO 12681; conditions: IFO12681, aerobic, read-out: minimum inhibitory concentration (MIC)
[16] = test system: Salmonella typhimurium IFO 12529; conditions: Salmonella enterica, aerobic, read-out: minimum inhibitory concentration (MIC)
[17] = test system: Staphylococcus aureus NR 2855; conditions: NR2855; Staphylococcus aureus NR 2855; aerobic; agar dilution; read-out: minimum inhibitory concentration (MIC)
[18] = test system: Staphylococcus aureus FDA 209P JC-1; conditions: FDA209P; Staphylococcus aureus FDA 209P JC-1; aerobic; agar dilution; read-out: minimum inhibitory concentration (MIC)
[19] = test system: Serratia marcescens IFO 12648; conditions: IFO12648, aerobic, read-out: minimum inhibitory concentration (MIC)
[20] = test system: Klebsiella pneumoniae FDA PCI 602; conditions: FDAPCI602, aerobic, read-out: minimum inhibitory concentration (MIC)
[21] = test system: Enterobacter aerogenes NR 2945; conditions: Klebsiella aerogenes, NR2945, aerobic, read-out: minimum inhibitory concentration (MIC)

Structure (SMILES)	MIC [1]	MIC [2]	MIC [3]	MIC [4]	MIC [5]	MIC [6]	MIC [7]	MIC [8]	MIC [9]	MIC [10]	MIC [11]	MIC [12]	MIC [13]	MIC [14]	MIC [15]	MIC [16]	MIC [17]	MIC [18]	MIC [19]	MIC [20]	other results
CNC1CCN(c2c(F)cc3c(=O)c(C(=O)O)cn4c3c2OCN4C)CC1 [Example 34]	0.78 µg/mL (≈ 2.07 µM)	0.05 µg/mL (≈ 0.133 µM)	50 µg/mL (≈ 133 µM)	6.25 µg/mL (≈ 16.6 µM)	25 µg/mL (≈ 66.4 µM)	6.25 µg/mL (≈ 16.6 µM)	0.78 µg/mL (≈ 2.07 µM)	0.1 µg/mL (≈ 0.266 µM)	0.05 µg/mL (≈ 0.133 µM)	0.78 µg/mL (≈ 2.07 µM)	3.13 µg/mL (≈ 8.32 µM)	0.2 µg/mL (≈ 0.531 µM)	0.2 µg/mL (≈ 0.531 µM)	0.2 µg/mL (≈ 0.531 µM)	0.2 µg/mL (≈ 0.531 µM)	0.1 µg/mL (≈ 0.266 µM)	1.56 µg/mL (≈ 4.14 µM)	0.2 µg/mL (≈ 0.531 µM)	0.78 µg/mL (≈ 2.07 µM)	0.78 µg/mL (≈ 2.07 µM)	MIC [21]: 0.1 µg/mL (≈ 0.266 µM)
CN1COc2c(N3CCS(=O)(=O)CC3)c(F)cc3c(=O)c(C(=O)O)cn1c23 [Example 39, 10-(1,1-dioxide-4-thiomorpholinyl)-9-fluoro-3-methyl-7-oxo-2,3-dihydro-7H-pyrido[3,2,1-ij]-1,3,4-benzoxadiazine-6-carboxylic acid]	0.39 µg/mL (≈ 0.981 µM)	0.05 µg/mL (≈ 0.126 µM)	6.25 µg/mL (≈ 15.7 µM)	12.5 µg/mL (≈ 31.5 µM)	0.78 µg/mL (≈ 1.96 µM)	12.5 µg/mL (≈ 31.5 µM)	0.39 µg/mL (≈ 0.981 µM)	0.025 µg/mL (≈ 0.0629 µM)	0.025 µg/mL (≈ 0.0629 µM)	3.13 µg/mL (≈ 7.88 µM)	3.13 µg/mL (≈ 7.88 µM)	0.78 µg/mL (≈ 1.96 µM)	0.78 µg/mL (≈ 1.96 µM)	0.39 µg/mL (≈ 0.981 µM)	0.78 µg/mL (≈ 1.96 µM)	0.2 µg/mL (≈ 0.503 µM)	0.78 µg/mL (≈ 1.96 µM)	0.39 µg/mL (≈ 0.981 µM)	1.56 µg/mL (≈ 3.93 µM)	1.56 µg/mL (≈ 3.93 µM)	MIC [21]: 0.05 µg/mL (≈ 0.126 µM)
C=CCN1CCN(c2c(F)cc3c(=O)c(C(=O)O)cn4c3c2OCN4C)CC1 [Example 46]	0.78 µg/mL (≈ 2.01 µM)	0.05 µg/mL (≈ 0.129 µM)	1.56 µg/mL (≈ 4.02 µM)	6.25 µg/mL (≈ 16.1 µM)	0.39 µg/mL (≈ 1 µM)	6.25 µg/mL (≈ 16.1 µM)	0.39 µg/mL (≈ 1 µM)	0.05 µg/mL (≈ 0.129 µM)	0.05 µg/mL (≈ 0.129 µM)	1.56 µg/mL (≈ 4.02 µM)	1.56 µg/mL (≈ 4.02 µM)	0.2 µg/mL (≈ 0.515 µM)	0.1 µg/mL (≈ 0.257 µM)	0.39 µg/mL (≈ 1 µM)	0.1 µg/mL (≈ 0.257 µM)	0.1 µg/mL (≈ 0.257 µM)	0.39 µg/mL (≈ 1 µM)	0.78 µg/mL (≈ 2.01 µM)	0.39 µg/mL (≈ 1 µM)	0.78 µg/mL (≈ 2.01 µM)	MIC [21]: 0.1 µg/mL (≈ 0.257 µM)

Further compounds by falling MIC [1], results first:

MIC [1]	MIC [2]	MIC [3]	MIC [4]	MIC [5]	MIC [6]	MIC [7]	MIC [8]	MIC [9]	MIC [10]	MIC [11]	MIC [12]	MIC [13]	MIC [14]	MIC [15]	MIC [16]	MIC [17]	MIC [18]	MIC [19]	MIC [20]	Structure (SMILES)	other results
6.25 µg/mL (≈ 13.4 µM)	1.56 µg/mL (≈ 3.34 µM)	50 µg/mL (≈ 107 µM)	12.5 µg/mL (≈ 26.8 µM)	25 µg/mL (≈ 53.6 µM)	100 µg/mL (≈ 214 µM)	12.5 µg/mL (≈ 26.8 µM)	0.39 µg/mL (≈ 0.836 µM)	3.13 µg/mL (≈ 6.71 µM)	3.13 µg/mL (≈ 6.71 µM)	3.13 µg/mL (≈ 6.71 µM)	0.78 µg/mL (≈ 1.67 µM)	0.78 µg/mL (≈ 1.67 µM)	6.25 µg/mL (≈ 13.4 µM)	0.39 µg/mL (≈ 0.836 µM)	0.78 µg/mL (≈ 1.67 µM)	6.25 µg/mL (≈ 13.4 µM)	6.25 µg/mL (≈ 13.4 µM)	3.13 µg/mL (≈ 6.71 µM)	3.13 µg/mL (≈ 6.71 µM)	CN1COc2c(N3CCN(CC(=O)c4ccccc4)CC3)c(F)cc3c(=O)c(C(=O)O)cn1c23 [Example 41]	MIC [21]: 0.1 µg/mL (≈ 0.214 µM)
3.13 µg/mL (≈ 8.64 µM)	0.39 µg/mL (≈ 1.08 µM)	25 µg/mL (≈ 69 µM)	25 µg/mL (≈ 69 µM)	50 µg/mL (≈ 138 µM)	25 µg/mL (≈ 69 µM)	3.13 µg/mL (≈ 8.64 µM)	0.78 µg/mL (≈ 2.15 µM)	0.39 µg/mL (≈ 1.08 µM)	3.13 µg/mL (≈ 8.64 µM)	12.5 µg/mL (≈ 34.5 µM)	3.13 µg/mL (≈ 8.64 µM)	1.56 µg/mL (≈ 4.31 µM)	1.56 µg/mL (≈ 4.31 µM)	1.56 µg/mL (≈ 4.31 µM)	0.78 µg/mL (≈ 2.15 µM)	6.25 µg/mL (≈ 17.3 µM)	1.56 µg/mL (≈ 4.31 µM)	6.25 µg/mL (≈ 17.3 µM)	6.25 µg/mL (≈ 17.3 µM)	CN1COc2c(N3CCNC(=O)C3)c(F)cc3c(=O)c(C(=O)O)cn1c23 [Example 24, 9-fluoro-3-methyl-7-oxo-10-(3-oxo-1-piperazinyl)-2,3-dihydro-7H-pyrido[3,2,1-ij]-1,3,4-benzoxadiazine-6-carboxylic acid]	MIC [21]: 0.78 µg/mL (≈ 2.15 µM)

Reference: US4864023A, “Pyrido(3,2,1-IJ)-1,3,4-benzoxadiazine derivatives” (priority 1988, dated 1989)
